# Where two headings read alike, the source gives them in different places. Marks after values point to notes of the source that are not given here.
# Legend:
# [1] = test system: rainbow trout erythrocytes; details: for presence of hemolytic activity of copper solution: mixed with equal volume of 5% erythrocyte suspension
# Description: The filtrate from water samples collected on Feb. […] Environmental water samples were allowed to thaw to room temperature and passed through a Sep-Pak Plus tC18 disposable cartridge (Waters Corp., Milford Mass.), attached to a vacuum manifold. The column was pre-equilibrated with methanol (20 ml) followed by H2O (20 ml). The cartridges were eluted with the following concentrations of MeOH/H2O: 100% H2O, 40%, 60%, 80%, and 100% MeOH (12 ml ea^−1). An aliquot of each elution was diluted, using Tris buffer +CaCl2, to give final dilutions ranging from 6 to 60% of original concentrations. […] The occurrence of hemolytic activity was determined by the absorbance of released hemoglobin, measured at 540 nm. Saponin (10 μg) served as a positive hemolysin control. Treatments were run in quadruplicate.
# A hemolytic assay based on the lysis of fish erythrocytes was utilized to screen for bioactive materials. Cultures and culture fractions that were positive in the hemolytic assay were tested further using assays for ichthyotoxicity and cytotoxicity.
# Blood was extracted from the caudal vein of rainbow trout (Oncorhynchus mykis) provided by the Center of Marine Biotechnology's Aquaculture Research Center. Needles were heparin (Sigma Chemical Co., St. Louis Mo.) treated and 10 units ml^−1 of additional heparin was added to whole blood samples to prevent clotting. […] Buffer pH was adjusted to 7.4 at 10° C. with 1N HCl, then filter sterilized (0.22 μm). […] Suspensions were stored at 4° C. for no longer than 10 days.
# Hemolytic assays were performed by diluting test material in Tris buffer +CaCl2 (100 μl total) and adding this to a 5% erythrocyte suspension (100 μl). […] Assays were incubated on an orbital shaker (80-100 rpm) at 20° C. for 1 hour. Plates were then centrifuged at 2500 g for 5 min. and the supernatant (100 μl) was transferred to another flat bottom 96 well polystyrene plate, where the absorbance of released hemoglobin was read at 540 nm. Saponin (10 μg) (from Quillaja bark; Sigma Chemical Co., St. Louis Mo.) was used as a positive hemolysin control All treatments were run in quadruplicate.
# LC50values and ranges were determined by Probit analysis (SPSS Base 10.0, SPSS Inc., Chicago Ill.).
# Blood was extracted from the caudal vein of rainbow trout (Oncorhynchus mykis). […] Buffer pH was adjusted to 7.4 at 10° C. with 1N HCl, then filter sterilized (0.22 um). […] Blood suspensions were stored at 4° C. for no longer than 10 days.
# Hemolysis assays were performed by diluting test material in Tris buFFer +CaCl2 (100 ul) and adding this to 100 ul of a 5% erythrocyte suspension for a total assay volume of 200 ul. […] Plates were incubated on an orbital shaker (80-100 rpm) at 20° C. for 1 hour. Plates were then centrifuged at 2000 g for 5 min. and the supernatant (100 ul) was transferred to a new flat bottom 96 well polystyrene plate, where the absorbance of released hemoglobin was read at 540 nm. Saponin (from Quillaja bark; Sigma Chemical Co., St. Louis Mo.) was used as a positive hemolysin control. Percent hemolysis (0-100%) was calculated from comparison to un-treated controls and samples treated with 10 ug saponin. All treatments were run in quadruplicate.
# Hemolytic LC50 values were calculated from a dilution series of KmTx 2 and amphotericin B. LC50 values and ranges were determined by Probit analysis using a SPSS Base 10.0 statistical software package (SPSS Inc., Chicago, Ill.).
# [2] = test system: sheepshead minnow (Cyprinodon variegatus) larvae; assay: Static acute larval fish ichthyotoxicity bioassay (sheepshead minnow); type: in vivo; details: algicide alone (control larvae without K. micrum)
# Description: Ichthyotoxicity was evaluated using a static, acute (24-48 hour), small volume (2 ml), larval fish bioassay. Exposures were performed at 20° C. in 24-well non-tissue culture treated polystyrene plates (Becton Dickinson Labware, Franklin Lakes N.J.). Two species were utilized for ichthyotoxicity testing, zebrafish (Danio rerio) and sheepshead minnows (Cyprinodon variegatus), depending on their availability and salinity tolerance, with sheepshead minnows being tolerant to a wider range of salinities, but zebrafish being more readily obtainable in large numbers. Therefore, zebrafish, 5-<48 hrs old post-hatch, were used for toxic fraction testing, while sheepshead minnows, 3-<24 hours old post-hatch, were used to test whole dinoflagellate cultures. Larvae were not fed prior to or during testing. Previous experiments had shown that, at the biomass/water ratios used for each species, oxygen saturation remained >60% during the 48 hour exposure, as recommended in the Standard Guide for Conducting Acute Toxicity Tests with Fishes, Macroinvertebrates, and Amphibians (ASTM, 1992). All treatments were run in triplicate.
# This experiment was run in triplicate. For these experiments, 12 psu ASW (Instant Ocean Brand) with added f/2-Si nutrient mixture (Guillard, 1975) and 1.5% soil extract and 0.3% chicken manure extract (alkalinity 75 mg L^−1 CaCO3) was used as the diluent. […]
# [3] = test system: Karlodinium micrum (CCMP 1974); assay: Dinoflagellate lysis due to copper sulfate and potassium permanganate (K. micrum); type: cell-based; details: exposures ≧2 mg L^−1 and only after 2 hours
# [4] = test system: striped bass fingerlings; details: comparable salinities, higher alkalinities (Reardon and Harrell, 1990); cited from earlier work
# [5] = for % DECREASE of measured free copper: n = 2
# Description: The first experiment involved the addition of EDTA ([…]) [as EDTA +4 Na·2 H2O ] to 0.9% NaCl solutions containing CuSO4·5 H2O (0.1, 0.5, 2.5, or 10 mg L^−1 Cu). Free Cu was measured using the porphyrin method (range 0-210 μg L^−1 ) (HACH, Loveland Colo.). […] Each solution, with and without EDTA, was assayed for hemolytic activity.
# [6] = test system: Aspergillus niger (ATCC 1004); assay: Anti-fungal broth microdilution assay (filamentous fungi); type: cell-based
# Description: (§1) The following fungal strains were purchased from the American Type Culture Collection (Manassas, Va.), Aspergillus niger (ATCC 1004) as a representative filamentous fungi, and Candida albicans (ATCC 14053) as a representative yeast. Assays were performed according to the following National Committee for Clinical Laboratory Standards documents; M27-A2 Reference Method for Broth Dilution Antifungal Susceptibility Testing of Yeasts; Approved Standard—Second Edition([NCCLS, 2002), and M38-A Reference Method for Broth Dilution Antifungal Susceptibility Testing of Filamentous Fungi; Approved Standard (NCCLS, 2002). Procedures for the broth microdilution modification were followed for both species with the following exceptions; A. niger stocks were maintained on Potato Dextrose Agar at 25° C., while C. albicans was maintained on Yeast Malt Agar at 28° C., both according to ATCC recommendations. Amphotericin B was used as a positive control. Microdilution assays were performed in HyQ-RPMI-1640 media (HyClone, Logan, Utah.), with 2.05 mM L-glutamine, without sodium bicarbonate, pH 7.2 using dilutions of 1 mg/ml DMSO stocks of KmTx 2 and amphotericin B.
# (§2) The following concentrations were tested for both KmTx2 and amphotericin B: 0.0625, 0.125, 0.25, 0.5, 1, 2, 4, 8, and 16 μg/ml. A maximum of 1.6% DMSO was added to any given well. Plates were incubated at 25 and 28° C., respectively, for A. niger and C. albicans. […] Amphotericin B and all culture media were purchased from Sigma-Aldrich (St. Louis, Mo.).
# [7] = test system: Candida albicans (ATCC 14053); assay: Anti-fungal broth microdilution assay (yeast); type: cell-based
# Description: as §1, §2
# [8] = test system: rainbow trout erythrocytes; assay: Membrane lipid inhibition assay of KmTx 2 hemolytic activity; type: cell-based; details: for inhibition of the hemolytic activity of KmTx 2 by co-incubation: 0.001-10 μM sterol or lipid, KmTx 2 0.1, 0.5, 1 μg/ml
# Description: To assess the inhibitory effects of exogenous membrane lipids on KmTx 2 hemolytic activity, the following sterols and lipids were tested: cholesterol, ergosterol, gymnodinosterol, and both natural and synthetic phosphatidylcholine. Cholesterol (5-cholesten-3β-ol) and L-α-phosphatidylcholine (brain, porcine) were purchased from Avanti Polar Lipids Inc. (Alabaster, Ala.); ergosterol (5,7,22-cholestatrien-24β-methyl-3β-ol) was purchased from Steraloids, Inc. (Newport, R.I.). Synthetic phosphatidylcholine (L-α-lecithin (β-γ-dipalmitoyl) was purchased from Calbiochem (San Diego, Calif.), Gymnodinosterol was isolated from filtered K. micrum (CCMP 2282) cells (isolation described in supplemental materials). KmTx 2: 0, 0.1, 0.5, and 1 μg/ml was added to solutions of Tris buffer +CaCl2 with either: 0, 0.001, 0.01, 0.1, 1 or 10 μM selected sterol or membrane lipid. Stock solutions of toxin and lipid were made in methanol and no more than 1% of each (2% total) was added to any given well. After brief mixing, these solutions were added 1: 1 with a diluted suspension of rainbow trout erythrocytes and hemolytic activity was assessed as described in supplemental materials.
# [9] = test system: rat embryonic fibroblast (REF 52) cells; assay: Ion permeation measurement, Ca^2+ flux with fura-2 (fibroblasts); type: cell-based; details: 0.2 μM
# Description: The following cell types were tested for toxicity due to KmTx 2; rat embryonic fibroblast, rat intestional epithelial, and isolated rabbit primary sensory neurons. Cells were cultured on No. 1 glass coverslips and loaded with fluorescent indicator (fura-2) and were examined on an inverted epifluorescence microscope (model Diaphot; 40×CF Fluor objective, N.A. 1.30; Nikon Corp.) coupled to a spectrofluorometer (model CM1T10I, SPEX Industries) operating in the microfluorometry mode. Cells were bathed in 4 ml of Dulbecco's modified Eagle's medium (DMEM) buffered with HEPES (pH 7.4). KmTx 2 (stock solution in DMSO) was directly bath-applied with gentle convective mixing. Fura-2 was alternately excited at 340 and 380 nm. Fluorescence emission was passed through a 510-nm bandpass filter before photometric quantitation. DATAMAX software (SPEX Industries) was used for data acquisition and instrument control. Origin software (OriginLab Corp.) was used for data reduction and analysis
# [10] = any concentration (0.0625-16 μg/ml) after 24 hours
compound,measurement,setting,value
"O.O.O.O.O.O=S(=O)([O-])[O-].[Cu+2] [CuSO4, CuSO4·5 H2O]",presence of hemolytic activity of copper solution,[1]; copper 5 mg L^−1 without EDTA,4.957*
same,presence of hemolytic activity of copper solution,[1]; copper 20 mg L^−1 without EDTA,21.110*
same,mortality or epithelial damage of sheepshead minnow larvae,[2],No mortality or epithelial damage
same,Cell lysis,[3],occurred in K. micrum
same,96h LC50,[4],ca. 8 mg L^−1
"O.O.O=C([O-])CN(CCN(CC(=O)[O-])CC(=O)[O-])CC(=O)[O-].[Na+].[Na+].[Na+].[Na+] [EDTA, EDTA +4 Na·2 H2O]",effect of EDTA on hemolytic activity due to Cu alone,[1],completely remove hemolytic activity
same,free Cu chelated,"[5]; EDTA 2 mM, all concentrations tested",> 90%
same,% DECREASE of measured free copper,"[5]; copper 0.2 mg L^−1, EDTA 2 mM",96.3%
same,% DECREASE of measured free copper,"[5]; copper 1 mg L^−1, EDTA 2 mM",95.9%
same,% DECREASE of measured free copper,"[5]; copper 5 mg L^−1, EDTA 2 mM",90.4%
same,% DECREASE of measured free copper,"[5]; copper 20 mg L^−1, EDTA 2 mM",92.6%
"C[C@@H]1[C@H](O)[C@@H](C)/C=C/C=C/C=C/C=C/C=C/C=C/C=C/[C@H](O[C@@H]2O[C@H](C)[C@@H](O)[C@H](N)[C@@H]2O)C[C@@H]2O[C@](O)(C[C@@H](O)C[C@@H](O)[C@H](O)CC[C@@H](O)C[C@@H](O)CC(=O)O[C@H]1C)C[C@H](O)[C@H]2C(=O)O [amphotericin B, reference compound]",hemolytic LC50,[1]; probit analysis of dilution series,3.759 µg/mL
same,growth,[6]; [10],no growth was observed
same,Minimal inhibitory concentration (MIC),"[6]; lowest dose with no growth after 96 hours, 25° C.",0.5 µg/mL
same,growth,[7]; [10],no growth was observed
same,Minimal inhibitory concentration (MIC),"[7]; lowest dose with no growth after 96 hours, 28° C.",0.125 µg/mL
"CC(C)CCC[C@@H](C)[C@H]1CC[C@H]2[C@@H]3CC=C4C[C@@H](O)CC[C@]4(C)[C@H]3CC[C@]12C [cholesterol, 5-cholesten-3β-ol]",inhibition of the hemolytic activity of KmTx 2 by co-incubation,[8],inhibited
same,concentration at which complete inhibition was reached,[8]; co-incubation with KmTx 2,ca. 10 μM
"CC(C)[C@@H](C)/C=C/[C@@H](C)[C@H]1CC[C@H]2C3=CC=C4C[C@@H](O)CC[C@]4(C)[C@H]3CC[C@]12C [ergosterol, 5,7,22-cholestatrien-24β-methyl-3β-ol]",inhibition of the hemolytic activity of KmTx 2 by co-incubation,[8],inhibited
same,concentration at which inhibition plateaued,[8]; co-incubation with KmTx 2,ca. 1 μM
"CC(C)[C@H](C)C=C[C@@H](C)[C@H]1CCC2=C3CC[C@H]4[C@H](C)[C@@H](O)CC[C@]4(C)[C@H]3CC[C@@]21C [gymnodinosterol, (24S)-4α-methyl-5α-ergosta-8(14),22-dien-3β-ol]",inhibition of the hemolytic activity of KmTx 2 by co-incubation,[8],not inhibited
"CCCCCCCCCCCCCCCC(=O)OC[C@H](COP(=O)([O-])OCC[N+](C)(C)C)OC(=O)CCCCCCCCCCCCCCC [synthetic dipalmitoyl (16:0), L-α-lecithin (β-γ-dipalmitoyl)]",inhibition of the hemolytic activity of KmTx 2 by co-incubation,[8],no inhibition
"NC(=O)CC[C@@H]1NC(=O)[C@H](Cc2ccccc2)NC(=O)[C@H](Cc2ccc(O)cc2)NC(=O)[C@@H](N)CSSC[C@@H](C(=O)N2CCC[C@H]2C(=O)N[C@@H](CCCN=C(N)N)C(=O)NCC(N)=O)NC(=O)[C@H](CC(N)=O)NC1=O [vasopressin, reference compound]",cytosolic Ca^2+ levels,[9],spike in cytosolic Ca^2+ levels followed by rapid decline to level above baseline
"L-α-phosphatidylcholine (brain, porcine) [natural brain phosphotidylcholine]",inhibition of the hemolytic activity of KmTx 2 by co-incubation,[8],no inhibition

# — patent US20050209104A1, “Dinoflagellate karlotoxins, methods of isolation and uses thereof” (priority 2002, published 2005)
